The values that follow come from article PMC4366844, “Biochemical and Pharmacological Characterizations of ESI-09 Based EPAC Inhibitors: Defining the ESI-09 “Therapeutic Window”” (Scientific Reports, 2015).

In one data set the target is T1, full-length EPAC1 (Homo sapiens, UniProt O95398).
T1 construct: made in house
T1 sequence (O95398 1-881 isoform O95398-3): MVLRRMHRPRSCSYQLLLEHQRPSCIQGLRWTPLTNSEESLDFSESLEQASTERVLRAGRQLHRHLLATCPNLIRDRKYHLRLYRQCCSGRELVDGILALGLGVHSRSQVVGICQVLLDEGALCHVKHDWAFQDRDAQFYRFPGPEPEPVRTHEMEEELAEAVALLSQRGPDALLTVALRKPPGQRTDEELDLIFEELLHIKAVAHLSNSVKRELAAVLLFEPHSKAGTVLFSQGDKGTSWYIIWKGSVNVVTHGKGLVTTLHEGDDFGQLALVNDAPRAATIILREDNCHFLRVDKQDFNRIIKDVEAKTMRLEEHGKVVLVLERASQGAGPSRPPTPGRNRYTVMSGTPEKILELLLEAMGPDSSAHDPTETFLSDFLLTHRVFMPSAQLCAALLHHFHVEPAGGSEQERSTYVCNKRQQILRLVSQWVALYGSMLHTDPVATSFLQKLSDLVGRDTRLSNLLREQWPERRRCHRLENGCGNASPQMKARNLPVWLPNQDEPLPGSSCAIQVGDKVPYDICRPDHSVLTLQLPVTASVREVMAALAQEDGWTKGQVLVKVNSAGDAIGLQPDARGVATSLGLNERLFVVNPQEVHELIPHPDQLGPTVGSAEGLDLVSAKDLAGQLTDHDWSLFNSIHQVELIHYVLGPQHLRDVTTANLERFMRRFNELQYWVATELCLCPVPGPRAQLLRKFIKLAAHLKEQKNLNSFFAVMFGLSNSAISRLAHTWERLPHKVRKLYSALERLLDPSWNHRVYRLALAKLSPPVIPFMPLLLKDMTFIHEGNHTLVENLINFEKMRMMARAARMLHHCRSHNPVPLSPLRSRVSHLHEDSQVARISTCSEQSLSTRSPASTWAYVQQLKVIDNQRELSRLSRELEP
Put plainly: In vitro GEF activity assay (Rap1b-BODIPY-GDP), EPAC1. The following applies: vs ESI-09. The data set is classed as biochemical. The source says:
The guanine nucleotide exchange activity of EPAC proteins can be biochemically determined using a coupled exchange assay, in which Rap1 loaded with a fluorescent GDP analog, 2′-/3′-O-(N′-methylanthraniloyl)guanosine-5′-O-diphosphate (MANT-GDP), is used as the substrate. The exchange of Rap1-bound MANT-GDP by free unlabeled GDP leads to a decrease in fluorescence as MANT-GDP contains an environment sensitive fluorophore, MANT, whose fluorescence intensity increases upon binding to Rap1. However, the MANT-GDP based GEF assay is not well suited for ESI-09 analogs because they absorb lights within the excitation emission wavelengths of the fluorophore.
Recombinant full-length human EPAC1, mouse EPAC2 and C-terminal truncated Rap1B(1-167) were purified as described previously.
In vitro EPAC GEF activity was measured as previously described with the exception that purified Rap1B(1-167) was loaded with BODIPY-GDP instead of MANT-GDP[39]. […] The exchange reaction was monitored using a Spectramax M2 Plate Reader (Molecular Devices) with the excitation and emission wavelengths set at 485 and 515 nm, respectively. […]

In data set [1] the target is T2, EPAC2 (Mus musculus, UniProt Q9EQZ6).
T2 construct: made in house
T2 sequence (Q9EQZ6 1-1011): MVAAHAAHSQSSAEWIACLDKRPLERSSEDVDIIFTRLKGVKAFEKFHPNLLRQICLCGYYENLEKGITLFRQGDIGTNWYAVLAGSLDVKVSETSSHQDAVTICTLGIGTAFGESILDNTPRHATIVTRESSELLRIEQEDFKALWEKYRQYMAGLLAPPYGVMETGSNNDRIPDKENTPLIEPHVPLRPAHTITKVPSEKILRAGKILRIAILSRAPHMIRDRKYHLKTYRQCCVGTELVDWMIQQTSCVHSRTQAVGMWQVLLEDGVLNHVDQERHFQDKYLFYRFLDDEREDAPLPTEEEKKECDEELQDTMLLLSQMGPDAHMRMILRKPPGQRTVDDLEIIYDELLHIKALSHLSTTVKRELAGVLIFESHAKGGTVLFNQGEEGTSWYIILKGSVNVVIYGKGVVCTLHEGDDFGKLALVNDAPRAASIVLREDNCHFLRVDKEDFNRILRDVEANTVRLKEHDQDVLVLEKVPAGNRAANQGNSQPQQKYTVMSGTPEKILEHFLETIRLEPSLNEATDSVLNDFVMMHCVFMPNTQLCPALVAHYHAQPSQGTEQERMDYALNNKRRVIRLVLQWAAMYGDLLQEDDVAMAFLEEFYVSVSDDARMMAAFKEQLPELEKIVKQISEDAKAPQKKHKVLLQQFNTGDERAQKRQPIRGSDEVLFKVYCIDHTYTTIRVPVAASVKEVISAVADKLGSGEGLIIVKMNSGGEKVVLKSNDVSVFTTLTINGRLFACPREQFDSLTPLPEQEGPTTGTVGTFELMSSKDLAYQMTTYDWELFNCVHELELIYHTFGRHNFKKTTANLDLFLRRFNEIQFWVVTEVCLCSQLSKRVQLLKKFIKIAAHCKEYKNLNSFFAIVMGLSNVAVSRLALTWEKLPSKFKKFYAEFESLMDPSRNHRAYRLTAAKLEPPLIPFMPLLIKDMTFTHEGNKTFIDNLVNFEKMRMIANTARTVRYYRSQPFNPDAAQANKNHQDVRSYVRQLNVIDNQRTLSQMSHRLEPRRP
Put plainly: 8-NBD-cAMP competition assay. The data set is classed as binding. How it is done:
Test compounds at various concentrations were added to the reaction mix, and fluorescence intensity signals from the 8-NBD probe before and after the addition of test compounds was monitored using a SpectaMaxM2 microplate reader (Molecular Devices, Silicon Valley, CA, USA) with excitation/emission wavelengths set at 470/540 nm.

The target in data set [2] is T2, EPAC2. Put plainly: In vitro GEF activity assay (Rap1b-BODIPY-GDP), EPAC2. The data set is classed as biochemical. The following applies: for mode of inhibition toward cAMP: cAMP titration with 5 µM ESI-09 or 1 µM HJC0726.
The nature of data set [3]: Solubility measurement by HPLC analysis. The data set is classed as physicochemical. The method, then:
ESI-09 and its analogs were synthesized following the recently reported synthetic procedures. The solubility of the selected compounds was measured by HPLC analysis following the reported protocol.

For data set [4], the target named is T2, EPAC2. Put plainly: Protein thermal denaturation assay (Sypro Orange), EPAC2. How it is done:
Thermal denaturation assay was performed using a BioRad CFX96 Touch^TM Real-Time PCR Detection system as described previously. […] Melting temperatures (Tm) were calculated by fitting the sigmoidal melt curve to the Boltzmann equation as described using GraphPad Prism, with R^2 values of >0.99[40].

On the set-up of data set [5]: method as in Our recent studies. The settings on record: ref Our recent studies; cited from earlier work.
Data set [6] concerns pancreatic ductal adenocarcinoma. The settings on record: in vivo administration; cited from earlier work.
For the next data set, the system named is fatal rickettsioses. The following applies: mice, daily dose of 10 mg/kg IP or 50 mg/kg oral gavage; cited from earlier work.
The next data set addresses T3, EPAC1h 149-318 (Homo sapiens, UniProt O95398).
T3 construct: the CBD of human EPAC1 (aa. 149-318); made in house
T3 sequence (O95398 149-318 isoform O95398-3): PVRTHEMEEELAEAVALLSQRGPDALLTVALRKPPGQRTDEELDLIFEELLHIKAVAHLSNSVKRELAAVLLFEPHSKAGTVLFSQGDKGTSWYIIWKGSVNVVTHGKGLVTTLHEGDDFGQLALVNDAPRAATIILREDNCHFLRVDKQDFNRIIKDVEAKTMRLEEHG
The experiment in a line: {15N,1H} HSQC NMR of EPAC1 cAMP binding domain. The source says: In addition to the thermo-unfolding experiments, {^15N, ^1H} Heteronuclear Single Quantum Coherence (HSQC) spectra were acquired to characterize the interaction between ESI-09 and the CBD of human EPAC1 (aa. 149-318) and address whether ESI-09 acts as a non-specific denaturant. The {^15N, ^1H} chemical shifts serve as excellent sensors for protein structure and dynamics as they provide information about the local chemical environment surrounding the amides of every amino acid (except prolines) within the protein. EPAC1h (149-318) has already been extensively analyzed by NMR spectroscopy. It results in HSQC spectra with well-dispersed peaks, which are representative of a fully folded protein (Fig. 5A). […]
EPAC1h 149-318 was expressed and purified using previously documented protocols[24][25][26][27] and dialyzed into NMR buffer (50 mM Tris, 50 mM NaCl, 2 mM EDTA, 2 mM EGTA, 1 mM DTT and 0.02% NaN3, pH 7.6). […] Gradient- and sensitivity- enhanced {^15N, ^1H} heteronuclear single quantum coherence (HSQC) spectra with 128 (t1) and 1024 (t2) complex points and spectral widths of 31.82 and 14.06 ppm for the ^15N and ^1H dimensions, respectively, were recorded with 8 scans and a recycle delay of 1 s. […] All spectra were processed with NMRPipe[41] and analyzed in Sparky[42].

Data set [7] concerns ovalbumin-induced oral tolerance. The settings on record: mice, daily dose of 10 mg/kg IP or 50 mg/kg oral gavage; cited from earlier work.
[8] abbreviates: 50 nM EPAC2, 60 nM 8-NBD-cAMP, read-out: IC50, potency in competing with 8-NBD-cAMP binding to EPAC2.
The mark [9] stands for this setting: water, read-out: Solubility in water (converted).

≈ marks a conversion by molar mass, not a printed value. Where “and” joins values, the source holds several entries; their conditions need not be identical. Identical values can stand only once. Entries after “also recorded” stand apart in the source; their conditions may differ. Like-named read-outs stand apart in the source and are kept apart here.

In general, IC50 refers to the concentration that inhibits the measured activity by half. The term solubility denotes the concentration that dissolves in the medium under given conditions. On to `CC(C)(C)c1cc(C(=O)/C(C#N)=N/Nc2cc(Cl)cc(Cl)c2)no1` [HJC0726], for which, on full-length EPAC1, the “potency relative to ESI-09 in inhibiting EPAC1” value was “five-fold more potent”. The IC50 on EPAC2 [1] (setting [8]) came to 1.9 ± 0.3 µM. Moreover, the “increase in potency relative to ESI-09 in the 8-NBD-cAMP competition assay” value at EPAC2 [1] (vs ESI-09) is reported as 5 fold. Also, on EPAC2 [2], the “mode of inhibition toward cAMP” value is recorded as “reversible competitive EPAC2 inhibitors”. Further, the “potency relative to ESI-09 in inhibiting EPAC2” value on EPAC2 [2] (vs ESI-09) is “five-fold more potent”. For the same compound, the solubility in data set [3] (ethanol, organic solvent or mixture, read-out: Solubility in ethanol (converted)) is 6800 µg/mL and 18600 µM; in data set [3] (setting [9]) it was 45.4 µg/mL and 124 µM.
For the compound `Nc1ncnc2c1ncn2[C@@H]1O[C@@H]2COP(=O)(O)O[C@H]2[C@H]1O` [cAMP, reference compound], the “melting temperature Tm of EPAC2” value on EPAC2 [4] (in the presence of 100 µM cAMP (about 48°C without)) was “around 46 °C”.
`CC(C)(C)c1cc(C(=O)/C(C#N)=N/Nc2cccc(Cl)c2Cl)no1` [HJC0750]: the half-inhibitory concentration (IC50) on EPAC2 [1] (setting [8]) was determined as 35.6 ± 7.8 µM.
The same measure, in the same setting: in the case of `CC(C)(C)c1cc(C(=O)/C(C#N)=N/Nc2ccc(Cl)c(Cl)c2)no1` [HJC0777] it was 3 ± 0.6 µM.
Compound `CC(C)(C)c1cc(C(=O)/C(C#N)=N/Nc2ccccc2)no1` [HJC0695] gave a half-inhibitory concentration (IC50) on EPAC2 [1] of 59.8 ± 9.4 µM.
In the case of `CC(C)(C)c1cc(C(=O)C(C#N)=NNc2cccc(Cl)c2)no1` [ESI-09, 3-[5-(tert-butyl)isoxazol-3-yl]-2-[2-(3-chlorophenyl) hydrazono] -3-oxopropanenitrile], the bioavailability result in data set [5] is “excellent bioavailability”. Moreover, in data set [6], the “effect on pancreatic ductal adenocarcinoma invasion and metastasis” value was “inhibits pancreatic ductal adenocarcinoma invasion and metastasis”. The “effect in fatal rickettsioses” value with fatal rickettsioses is “protecting mice from fatal rickettsioses”. Besides, the “effect on Tm of EPAC2” value is on record as “didn't shift the Tm to lower temperature; also recorded: no significant difference in thermo-denaturation” at EPAC2 [4] (ESI-09 1-20 µM, no cAMP) and “didn't lead to further changes in Tm” on EPAC2 [4] (ESI-09 in the presence of 100 µM cAMP). Further, the 50% inhibitory concentration (IC50) on EPAC2 [1] (setting [8]) was determined as 9 ± 1.2 µM. In addition, on EPAC2 [2], the “mode of inhibition toward cAMP” value is reported as “reversible competitive EPAC2 inhibitors”. Moreover, the “effect on HSQC spectrum of EPAC1h 149-318” value at EPAC1h 149-318 (50 μM ESI-09, 100 μM protein) is recorded as “Only minor chemical shift changes”; at EPAC1h 149-318 (500 μM ESI-09, 100 μM protein), “almost every peak broadens beyond detection”. Also, the solubility in [3] (ethanol, organic solvent or mixture, ethanol, read-out: Solubility in ethanol (converted)) is 15000 µg/mL and 45300 µM; in [3] (setting [9]), 5.95 ± 0.83 µg/mL (≈ 18 µM). Further, the “effect on ovalbumin-induced oral tolerance” value in data set [7] is on record as “compromising ovalbumin-induced oral tolerance”.
With `CC(C)(C)c1cc(C(=O)/C(C#N)=N/Nc2ccc(Cl)cc2)no1` [HJC0694], the IC50 at EPAC2 [1] (setting [8]) is 26.5 ± 4.1 µM.
On the same count and under the same terms, then `CC(C)(C)c1cc(C(=O)/C(C#N)=N/Nc2cc(Cl)ccc2Cl)no1` [HJC0696], with 7.3 ± 1.2 µM.
Same read-out and setting: in the case of `CC(C)(C)c1cc(C(=O)/C(C#N)=N/Nc2ccccc2Cl)no1` [HJC0693] it was 28.3 ± 4 µM.
